Assay results from patent US20250345329A1, “HETEROARYL DERIVATIVE COMPOUND AND USES THEREOF” (VORONOI, INC., priority 2022, published 2025).

Experiments:
[1] = target: T1, human EGFR (d746-750/T790M/C797S) (Homo sapiens, UniProt P00533, C797S/DEL746-750/T790M); assay: EGFR C797S enzyme inhibition activity (ADP-Glo kinase assay); type: biochemical; details: purified enzyme 3 ng, ATP 5 μM, 25° C., 1 hour, luminescence; read-out: EGFR DTC Enzyme IC50
T1 construct: human EGFR (d746-750/T790M/C797S) (668-end, SignalChem); purchased SignalChem
T1 sequence (P00533 with tags, fused parts or gaps DEL746-750/T790M/C797S): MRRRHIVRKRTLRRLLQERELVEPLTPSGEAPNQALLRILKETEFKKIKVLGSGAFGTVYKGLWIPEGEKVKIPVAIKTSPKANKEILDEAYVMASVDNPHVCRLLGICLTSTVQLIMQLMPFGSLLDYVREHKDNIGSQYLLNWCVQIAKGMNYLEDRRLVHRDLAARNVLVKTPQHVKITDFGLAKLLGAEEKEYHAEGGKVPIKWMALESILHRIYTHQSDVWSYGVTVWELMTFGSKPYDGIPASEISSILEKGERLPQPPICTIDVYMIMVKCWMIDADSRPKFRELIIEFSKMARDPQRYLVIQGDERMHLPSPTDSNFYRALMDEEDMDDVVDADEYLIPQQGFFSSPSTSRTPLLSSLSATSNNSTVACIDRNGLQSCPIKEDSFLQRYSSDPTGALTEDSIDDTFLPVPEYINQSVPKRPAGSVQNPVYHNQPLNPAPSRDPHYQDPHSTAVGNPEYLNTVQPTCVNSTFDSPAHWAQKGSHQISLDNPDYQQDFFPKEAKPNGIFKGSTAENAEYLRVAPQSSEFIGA
Protocol: <Experimental Example 1> Evaluation of EGFR C797S Enzyme Inhibition Activity
The compounds according to the present invention were reacted together with purified human EGFR (d746-750/T790M/C797S) (668-end, SignalChem) enzyme and a specific substrate and evaluated for enzyme inhibitory activity as described below. The reaction buffer consisted of 40 mM Tris-HCl pH 7.4, 20 mM MgCl2, 0.5 mg/ml BSA, and 50 μM DTT, and all reactions of the test substances were performed in reaction buffers. The compounds were serially diluted in 12 steps from a 10 mM DMSO stock, and the enzyme activity was measured at the final compound concentrations of 10, 3, 1, 0.3, 0.1, 0.03, 0.01, 0.003, 0.001, 0.0003, 0.0001, and 0 μM. In the assay, human EGFR (d746-750/T790M/C797S) (3 ng) enzyme was reacted with purified ATP (5 μM) and enzyme substrate (0.2 μg) at 25° C. for 1 hour, and the enzyme activity was determined using the in vitro ADP-Glo™ kinase assay (Promega). The enzyme activity inhibition was measured via luminescence by reacting the enzyme activity reaction solution, ADP-Glo reaction solution, and enzyme activity detection solution in a 2:2:1 ratio. Based on the luminescence of the enzyme activity of the solvent control group that was not treated with the compound, the degree of the enzyme activity inhibition depending on the treatment concentration of each compound was calculated, wherein the concentration of each compound that inhibited the enzyme activity by 50% was determined as the IC50 (nM) value, which was obtained using GraphPad Prism 8.4.3 (GraphPad software Inc., San Diego).

[2] = tested on: Ba/F3 expressing EGFR Del19/T790M/C797S mutations; assay: Inhibitory activity on proliferation of Ba/F3 cell overexpressing EGFR C797S (Cell Titer-Glo); type: cell-based; details: Mus musculus, BaF3; 72 hours treatment, cell growth rate vs control; read-out: Ba/F3 (EGFR DTC) GI50
Protocol: <Experimental Example 2> Evaluation of Inhibitory Activity on Proliferation of Ba/F3 Cell Overexpressing EGFR C797S
The following experiments were performed to evaluate the inhibitory activity of the compounds according to the present invention on the proliferation of Ba/F3 expressing EGFR Del19/T790M/C797S mutations.
Ba/F3 cells were cultured in RPMI-1640 medium supplemented with 10% fetal bovine serum (FBS), and 3000 cells were seeded into each well of a white clear bottom 96 well plate (Corning) 24 hours prior to compound treatment. The compounds were diluted in dimethyl sulfoxide (3-fold dilution, total of 12 concentrations) and injected at 1 μl each so that the final concentration was […] to 5 μM. After 72 hours post treatment with compounds, living cells were reacted in a 37° C., CO2 incubator for […], followed by 10 minutes at room temperature using Cell Titer-Glo luminescent cell-viability reagent (Promega), and the luminescence intensity thereof was measured using a reader (SynergyNeo2, Biotek). The result values were calculated as a cell growth rate (%) compared to the control group. GI50 values were calculated using the GraphPad Prism version 8.4.3 (GraphPad software Inc., San Diego) program.

Row | IC50 [1] | GI50 [2] | SMILES
1 | 50 to 500 nM | 500 to 5000 nM | CC(C)Nc1cc(Nc2ccnc(-c3cnn(S(=O)(=O)C4CC4)c3)n2)ncc1C(=O)Nc1cc(N2CCN(C)CC2)cc(C(C)(C)C#N)c1 [Example 40, N-(3-(2-cyanopropan-2-yl)-5-(4-methylpiperazin-1-yl)phenyl)-6-((2-(1-(cyclopropylsulfonyl)-1H-pyrazol-4-yl)pyrimidin-4-yl)amino)-4-(isopropylamino)nico-tinamide]
2 | < 50 nM | 500 to 5000 nM | C[C@H]1CCOc2c(cnn2C)-c2nccc(n2)Nc2cc(c(C(=O)NCCS(C)(=O)=O)cn2)N1 [Example 110, (S)-1^1,6-dimethyl-N-(2-(methylsulfonyl)ethyl)-1^1H-9-oxa-3,5-diaza-2(2,4)-pyrimidina-4(2,4)-pyridina-1(4,5)-pyrazolacyclo-nonaphane-4^5-carboxamide]
3 | < 50 nM | < 500 nM | CC(C)Nc1cc(Nc2ccnc(-c3cnn(S(=O)(=O)C4CC4)c3)n2)ncc1C(=O)NCCCC(F)(F)F [Example 81, 6-((2-(1-(cyclopropylsulfonyl)-1H-pyrazol-4-yl)pyrimidin-4-yl)amino)-4-(isopropylamino)-N-(4,4,4-trifluorobutyl)nicotin-amide]
4 | < 50 nM | < 500 nM | CC(C)Nc1cc(Nc2ccnc(-c3cnn(S(=O)(=O)C4CC4)c3)n2)ncc1C(=O)NCCC(F)(F)F [Example 82, 6-((2-(1-(cyclopropylsulfonyl)-1H-pyrazol-4-yl)pyrimidin-4-yl)amino)-4-(isopropylamino)-N-(3,3,3-trifluoropropyl)nico-tinamide]
5 | 50 to 500 nM | 500 to 5000 nM | CO[C@H]1CCN(c2nccc(Nc3cc(NC4CCCC4)c(C(=O)N4CC(CS(C)(=O)=O)C4)cn3)n2)C[C@H]1F (relative stereo) [Example 13, (4-(cyclopentylamino)-6-((2-(cis-3-fluoro-4-methoxypiperidin-1-yl)pyrimidin-4-yl)amino)pyridin-3-yl)(3-((methylsulfonyl)meth-yl)azetidin-1-yl)methanone]
6 | < 50 nM | 500 to 5000 nM | CO[C@H]1CCN(c2nccc(Nc3cc(NC(C)C)c(C(=O)N4CC(C#N)C4)cn3)n2)C[C@H]1F (relative stereo) [Example 17, 1-(6-((2-(cis-3-fluoro-4-methoxypiperidin-1-yl)pyrimidin-4-yl)amino)-4-(isopropylamino)nico-tinoyl)azetidine-3-carbonitrile]
7 | < 50 nM | 500 to 5000 nM | CC(C)Nc1cc(Nc2ccnc(-c3cnn(S(=O)(=O)C4CC4)c3)n2)ncc1C(=O)NCCN1CCCC1 [Example 68, 6-((2-(1-(cyclopropylsulfonyl)-1H-pyrazol-4-yl)pyrimidin-4-yl)amino)-4-(isopropylamino)-N-(2-(pyrrolidin-1-yl)ethyl)nicotinamide]
8 | < 50 nM | < 500 nM | C[C@H]1CCOc2c(cnn2C)-c2cc(ccn2)Nc2ncc(C(=O)NCCC(F)(F)F)c(n2)N1 [Example 115, (S)-1^1,6-dimethyl-N-(3,3,3-trifluoropropyl)-1^1H-9-oxa-3,5-diaza-4(2,4)-pyrimidina-2(2,4)-pyridina-1(4,5)-pyrazolacyclo-nonaphane-4^5-carboxamide]
9 | < 50 nM | 500 to 5000 nM | CC(C)Nc1cc(Nc2ccnc(-c3cnn(S(=O)(=O)C4CC4)c3)n2)ncc1C(=O)NCCS(=O)(=O)C(C)C [Example 74, 6-((2-(1-(cyclopropylsulfonyl)-1H-pyrazol-4-yl)pyrimidin-4-yl)amino)-4-(isopropylamino)-N-(2-(isopropylsulfonyl)eth-yl)nicotinamide]
10 | 50 to 500 nM | 500 to 5000 nM | CC(C)Nc1cc(Nc2ccnc(-c3cnn(S(=O)(=O)C4CC4)c3)n2)ncc1C(=O)NC1CN(C(=O)OC(C)(C)C)C1 [Example 46, tert-butyl 3-(6-((2-(1-(cyclopropylsulfonyl)-1H-pyrazol-4-yl)pyrimidin-4-yl)amino)-4-(isopropylamino)nico-tinamido)azetidine-1-carboxylate]
11 | < 50 nM | < 500 nM | CC(C)Nc1cc(Nc2ccnc(-c3cnn(S(=O)(=O)C4CC4)c3)n2)ncc1C(=O)NCC1CCCO1 (stereo not shown) [Example 62, 6-((2-(1-(cyclopropylsulfonyl)-1H-pyrazol-4-yl)pyrimidin-4-yl)amino)-4-(isopropylamino)-N-((tetrahydrofuran-2-yl)methyl)nicotin-amide]
12 | < 50 nM | < 500 nM | CC1CCCOc2c(cnn2C)-c2nccc(n2)Nc2cc(c(C(=O)NCCCC(F)(F)F)cn2)N1 (stereo not shown) [Example 116, 1^1,6-dimethyl-N-(4,4,4-trifluorobutyl)-1^1H-10-oxa-3,5-diaza-2(2,4)-pyrimidina-4(2,4)-pyridina-1(4,5)-pyrazolacyclo-decaphane-4^5-carboxamide]
13 | < 50 nM | 500 to 5000 nM | CO[C@H]1CCN(c2nccc(Nc3cc(NC(C)C)c(C(=O)Nc4cccc(N5CCN(C)CC5)c4)cn3)n2)C[C@H]1F (relative stereo) [Example 41, 6-((2-(cis-3-fluoro-4-methoxypiperidin-1-yl)pyrimidin-4-yl)amino)-4-(isopropylamino)-N-(3-(4-methylpiperaizn-1-yl)phenyl)nicotinamide]
14 | < 50 nM | 500 to 5000 nM | CC(C)Nc1cc(Nc2ccnc(-c3cnn(S(=O)(=O)C4CC4)c3)n2)ncc1C(=O)N1C[C@H](CS(C)(=O)=O)[C@H]1C [Example 71, (6-((2-(1-(cyclopropylsulfonyl)-1H-pyrazol-4-yl)pyrimidin-4-yl)amino)-4-(isopropylamino)pyri-din-3-yl)((2R,3S)-2-methyl-3-((methylsulfonyl)meth-yl)azetidin-1-yl)methanone]
15 | < 50 nM | 500 to 5000 nM | CC(C)Nc1cc(Nc2ccnc(-c3cnn(S(=O)(=O)C4CC4)c3)n2)ncc1C(=O)Nc1cccc(N2CCN(C)CC2)c1 [Example 39, 6-((2-(1-(cyclopropylsulfonyl)-1H-pyrazol-4-yl)pyrimidin-4-yl)amino)-4-(isopropylamino)-N-(3-(4-methylpiperazin-1-yl)phenyl)nicotinamide]
16 | 50 to 500 nM | 500 to 5000 nM | CC(C)Nc1cc(Nc2ccnc(-c3cnn(S(=O)(=O)C4CC4)c3)n2)ncc1C(=O)NCC1CCCC1 [Example 56, N-(cyclopentylmethyl)-6-((2-(1-(cyclopropylsulfonyl)-1H-pyrazol-4-yl)pyrimidin-4-yl)amino)-4-(isopropylamino)-nicotinamide]
17 | < 50 nM | 500 to 5000 nM | CC(C)Nc1cc(Nc2ccnc(-c3cnn(S(=O)(=O)C4CC4)c3)n2)ncc1C(=O)NC(CN(C)C)c1ccccc1 (stereo not shown) [Example 70, 6-((2-(1-(cyclopropylsulfonyl)-1H-pyrazol-4-yl)pyrimidin-4-yl)amino)-N-(2-(dimethylamino)-1-phenylethyl)-4-(isopropylamino)nico-tinamide]
18 | < 50 nM | < 500 nM | C[C@H]1CCOc2c(cnn2C)-c2nccc(n2)Nc2cc(c(C(=O)NC3CCCC(C(F)(F)F)C3)cn2)N1 (stereo partly drawn) [Example 119, (6S)-1^1,6-dimethyl-N-(3-(trifluoroemthyl)cy-clohexyl)-1^1H-9-oxa-3,5-diaza-2(2,4)-pyrimidina-4(2,4)-pyridina-1(4,5)-pyrazolacyclo-nonaphane-4^5-carboxamide]
19 | < 50 nM | 500 to 5000 nM | CC(C)Nc1cc(Nc2ccnc(N3CCOCC3)n2)ncc1C(=O)N1CC(CS(C)(=O)=O)C1 [Example 10, (4-(isopropylamino)-6-((2-morpholinopyrimidin-4-yl)amino)pyridin-3-yl)(3-((methylsulfonyl)meth-yl)azetidin-1-yl)methanone]
20 | < 50 nM | < 500 nM | CO[C@H]1CCN(c2nccc(Nc3cc(NC(C)C)c(C(=O)NCCC(F)(F)F)cn3)n2)C[C@H]1F (relative stereo) [Example 98, 6-((2-(cis-3-fluoro-4-methoxypiperidin-1-yl)pyrimidin-4-yl)amino)-4-(isopropylamino)-N-(3,3,3-trifluoropropyl)nico-tinamide]
